Read-outs that look alike come from different tables or passages of the source.
System: MTB specific T CD4+ lymphocytes
Assay type: cell-based, human
Settings: for positive tests / evaluable subjects: Microbiologically checked TB patients (before therapy start) / positive tests / evaluable subjects: Recently MTB exposed subjects: anergic subjects excluded

In the case of “AVIVRSELLTQYL (listed as Mycobacterium tuberculosis) [Peptide #2, peptide of Rv1251c]”, the “positive tests / evaluable subjects: BCG-vaccinated controls” value (BCG-vaccinated controls) was 0/15, the “positive tests / evaluable subjects: Microbiologically checked TB patients (before therapy start)” value was 11/55 and the “positive tests / evaluable subjects: Recently MTB exposed subjects” value was 8/61. For the same substance, the “positive tests / evaluable subjects: Sanitary workers” value was 1/21.
With “ELMARAAVLGSAH (listed as Mycobacterium tuberculosis) [Peptide #6, peptide of Rv1251c]” the “positive tests / evaluable subjects: BCG-vaccinated controls” value (BCG-vaccinated controls) was 0/15, the “positive tests / evaluable subjects: Microbiologically checked TB patients (before therapy start)” value was 14/55 and the “positive tests / evaluable subjects: Recently MTB exposed subjects” value was 6/61. For the same substance, the “positive tests / evaluable subjects: Sanitary workers” value was 3/21.
“GEIIFISGRLNGaa (GEIIFISGRLNGAA; listed as Mycobacterium tuberculosis) [Peptide #5, peptide of Rv0724A]” was tested, and the “positive tests / evaluable subjects: BCG-vaccinated controls” value (BCG-vaccinated controls) was 0/15, the “positive tests / evaluable subjects: Microbiologically checked TB patients (before therapy start)” value was 18/55 and the “positive tests / evaluable subjects: Recently MTB exposed subjects” value was 11/61. The “positive tests / evaluable subjects: Sanitary workers” value was 5/21.
In the case of “GSVRQLPSVLKPPLITLRTLTLSG (listed as Mycobacterium tuberculosis) [Peptide #3, peptide of Rv3479]”, the “positive tests / evaluable subjects: BCG-vaccinated controls” value was 0/15, the “positive tests / evaluable subjects: Microbiologically checked TB patients (before therapy start)” value was 27/55 and the “positive tests / evaluable subjects: Recently MTB exposed subjects” value was 20/61. For the same substance, the “sensitivity compared with ESAT-6 derived control peptide” value (result in words) was “elevated sensitivity comparable, if not more elevated, to multiepitope ESAT-6 protein derived control peptide” and the “positive tests / evaluable subjects: Sanitary workers” value was 7/21.
“RPVRRVLLFVVPSSGPAP (listed as Mycobacterium tuberculosis) [Peptide #4, peptide of Rv3479]” was tested, and the “positive tests / evaluable subjects: BCG-vaccinated controls” value was 0/15, the “positive tests / evaluable subjects: Microbiologically checked TB patients (before therapy start)” value was 10/55 and the “positive tests / evaluable subjects: Recently MTB exposed subjects” value was 13/61. The “positive tests / evaluable subjects: Sanitary workers” value was 6/21.
In the case of “TAWITAVVPGLMV (listed as Mycobacterium tuberculosis) [Peptide #1, peptide of Rv1478 (Consensus VIR)]”, the “positive tests / evaluable subjects: BCG-vaccinated controls” value was 0/15, the “positive tests / evaluable subjects: Microbiologically checked TB patients (before therapy start)” value was 12/55 and the “positive tests / evaluable subjects: Recently MTB exposed subjects” value was 14/61. The “positive tests / evaluable subjects: Sanitary workers” value was 6/21.
